Source: US20220000873A1, “S3QELS TO PROTECT AGAINST INTESTINAL PERMEABILITY” (Buck Institute for Research on Aging, priority 2018, published 2022)

What was measured:
[1] = tested on: C57BL/6 mice fed a high-fat diet; test: Mouse intestinal gene expression (qPCR, colon and distal small intestine); format: in vivo; details: high-fat diet with 200 mg/kg S3QEL, 16 weeks
Protocol: Six-week-old C57BL/6 mice were purchased from Jackson Laboratories and acclimated in-house for two weeks before the study. At 8 weeks of age, mice were randomized into groups based on weight and fed either a control semi-purified diet D12450J containing 10% fat kcal, a 60% fat kcal diet D12492, or a custom-mixed 60% fat kcal diet D12492 containing 200 mg/kg of S3QELs. Diets were purchased from Research Diets and were gamma-irradiated. Mice were maintained on the experimental diets for 16 weeks in total. Food consumption was measured daily in a semiquantitative fashion. The food was weighed before placing in the cage, and then weighed again 24 h later. […]
RNA from the fly intestine lysates, and the aqueous phase from the mouse intestinal Trizol lysates, were further processed to isolate RNA using a Quick-RNA™ MiniPrep Kit (Zymo Research) according to the manufacturer's guidelines. […] The quantity and quality of fly and mouse RNA samples were determined using a NanoDrop 1000 spectrophotometer (Thermo Scientific). 1 μg of total RNA from either fly or mouse intestine was used in a total reaction volume of […] containing 4 μL of iScript Reverse Transcription Supermix (Bio-Rad) to synthesize cDNA according to the manufacturer's guidelines. cDNA was stored at −20° C. before carrying out quantitative RTPCR. […]

[2] = tested on: C57BL/6 mice fed a high-fat diet; test: Mouse intestinal permeability (plasma FITC-dextran after gavage and fecal albumin); format: in vivo; details: high-fat diet (60% kcal) with 200 mg/kg S3QEL in diet, 16 weeks; plasma FITC-dextran and fecal albumin (FIG. 5A, B)
Protocol: Six-week-old C57BL/6 mice were purchased from Jackson Laboratories and acclimated in-house for two weeks before the study. At 8 weeks of age, mice were randomized into groups based on weight and fed either a control semi-purified diet D12450J containing 10% fat kcal, a 60% fat kcal diet D12492, or a custom-mixed 60% fat kcal diet D12492 containing 200 mg/kg of S3QELs. Diets were purchased from Research Diets and were gamma-irradiated. Mice were maintained on the experimental diets for 16 weeks in total. Food consumption was measured daily in a semiquantitative fashion. The food was weighed before placing in the cage, and then weighed again 24 h later. The total food weight difference within 24 h was divided by the number of mice in the cage to determine average food consumption per mouse. All experiments involving the use of mice were reviewed and approved by the Institutional Animal Care and Use Committee (IACUC) of the Buck Institute.
Mice were fasted for 4 h prior to assay. […] Blood plasma samples were diluted appropriately using 1×PBS and FITC-dextran fluorescence was measured at Ex 485 nm/Em 535 nm. FITC-dextran amount was determined using standard curves generated from a known amount of FITC-dextran titrated in plasma from control or high fat-fed mice. […]

Cc1ccc(-n2ncc3c(N(Cc4ccccc4)C(C)C)ncnc32)cc1Cl [S3QEL2.2]
decrease in tight-junction gene expression ([1]; both colon and distal small intestine (FIG. 5C, FIG. 11)): protected against the decrease | decrease in mucin gene expression ([1]; both colon and distal small intestine (FIG. 5D, FIG. 11)): protected against the decrease | increases in intestinal permeability in mice [2]: strongly protected
